Experimental findings from ChEMBL document CHEMBL1201862, “PubChem BioAssay data set” (2004) are described below.

Each structure is given as a SMILES string.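 Grown in 96-well plates, cells were treated for 48 hours with each compound at five concentrations. Insufficient inhibition: endpoint recorded as highest concentration tested. The concentration for 50% growth inhibition is given as GI50.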 Activity calls are given as the source filed them. No stated cut-off is given here; in the data, active = GI50 up to about 1.1 µM and inactive = higher.

Some test systems named below: NCI/ADR-RES; TK-10; HCT-15; M14; NCI-H522; UO-31; KM12; MDA-MB-231; DU-145; HCT-116; NCI-H460; RPMI-8226; HOP-62; A549; COLO 205; SN12C; EKVX; ACHN; CAKI-1; IGROV-1.
Common to all, as to assay: NCI anticancer screen, dose series, 48 h

As to `O=C(O)/C(Cc1ccnc2ccccc12)=N\O`, the GI50 was > 100 µM (inactive) with NCI/ADR-RES; > 100 µM (inactive) in the test with TK-10; > 100 µM with HCT-15; > 100 µM (inactive) with M14; > 100 µM (inactive) with NCI-H522; > 100 µM (inactive) in the test with UO-31. In addition, the GI50 in the test with KM12, with MDA-MB-231, in the test on DU-145, in the test on HCT-116, in the test with NCI-H460 and with RPMI-8226 was > 100 µM (inactive) throughout. For the same compound, the GI50 with HOP-62, in the test with A549, in the test on COLO 205, in the test with SN12C, in the test with EKVX and in the test on ACHN was > 100 µM (inactive) in each case. Moreover, the GI50 in the test on CAKI-1 and in the test with IGROV-1 was > 100 µM (inactive) in each case.

Regarding `COC(=O)c1ccccc1/N=C(/NC1CCCCCC1)NS(=O)(=O)c1ccc(C)cc1`, the GI50 in the test on NCI/ADR-RES was > 100 µM (inactive); with TK-10, > 100 µM (inactive); in the test on HCT-15 it was > 100 µM; in the test with M14, > 100 µM (inactive); with NCI-H522 it was 77.4 µM (inactive); in the test with UO-31, > 100 µM (inactive). Further, the GI50 was > 100 µM (inactive) in the test with KM12; 76.9 µM (inactive) in the test on MDA-MB-231; 58.6 µM (inactive) with DU-145; > 100 µM (inactive) in the test on HCT-116; > 100 µM (inactive) in the test on NCI-H460; > 100 µM (inactive) with RPMI-8226. Moreover, the GI50 with HOP-62 is 99.3 µM (inactive); in the test with A549, > 100 µM (inactive); in the test on COLO 205, > 100 µM (inactive); in the test with SN12C, > 100 µM (inactive); in the test with EKVX it was > 100 µM (inactive); with ACHN, > 100 µM (inactive). The GI50 in the test with CAKI-1 was 74.5 µM (inactive); in the test with IGROV-1, > 100 µM (inactive).

Turning to `Oc1ccc(NCn2c(=S)sc3ccccc32)cc1`, the GI50 was > 100 µM (inactive) in the test with NCI/ADR-RES; > 100 µM (inactive) with TK-10; > 100 µM with HCT-15; > 100 µM (inactive) in the test with M14; 17.7 µM (inactive) with NCI-H522; 89.9 µM (inactive) with UO-31. Besides, the GI50 in the test on KM12 was > 100 µM (inactive); in the test on MDA-MB-231 it was > 100 µM (inactive); with DU-145, > 100 µM (inactive); in the test with HCT-116, > 100 µM (inactive); in the test with NCI-H460 it was > 100 µM (inactive); with RPMI-8226, 26.2 µM (inactive). Moreover, the GI50 with HOP-62, in the test with A549, in the test on COLO 205, in the test with SN12C, with EKVX and with ACHN was > 100 µM (inactive) in each case. The GI50 is > 100 µM (inactive) with CAKI-1 and 33.2 µM (inactive) in the test on IGROV-1.

Regarding `COc1cc(/C=C2\N=C(c3ccccc3)N(c3ccc(C(=O)c4ccccc4)cc3N3C(=O)/C(=C/c4cc(OC)c(OC)c(OC)c4)N=C3c3ccccc3)C2=O)cc(OC)c1OC`, the GI50 in the test with NCI/ADR-RES was 7.8 µM (inactive); in the test with TK-10 it was 16.8 µM (inactive); with HCT-15, 5.62 µM; with M14, 12.1 µM (inactive); in the test on NCI-H522, 4.65 µM (inactive); in the test on UO-31, 16 µM (inactive). Further, the GI50 is 13.2 µM (inactive) in the test with KM12; 16.9 µM (inactive) in the test on MDA-MB-231; 14.5 µM (inactive) in the test with DU-145; 10.6 µM (inactive) with HCT-116; 8.49 µM (inactive) in the test on NCI-H460; 9.73 µM (inactive) in the test on RPMI-8226. Moreover, the GI50 with HOP-62 was 20.7 µM (inactive); in the test on A549, 13.7 µM (inactive); in the test with COLO 205 it was 16.4 µM (inactive); in the test on SN12C, 23.1 µM (inactive); in the test on EKVX, 24.8 µM (inactive); in the test on ACHN, 22.6 µM (inactive). Besides, the GI50 in the test on CAKI-1 was 22.2 µM (inactive); in the test on IGROV-1, 15.7 µM (inactive).

As to `CCOC(=O)Cn1c(=O)c2cc(C)cc3c(Cl)nc4c(OC)c(OC)cc1c4c32`, the GI50 with NCI/ADR-RES was > 100 µM (inactive); in the test with TK-10 it was > 100 µM (inactive); with HCT-15, > 100 µM; in the test on M14 it was > 100 µM (inactive); in the test on NCI-H522 it was > 100 µM (inactive); with UO-31, > 100 µM (inactive). In addition, the GI50 in the test on KM12 was > 100 µM (inactive); in the test on MDA-MB-231, > 100 µM (inactive); in the test on DU-145, > 100 µM (inactive); in the test on HCT-116, > 100 µM (inactive); in the test on NCI-H460 it was > 100 µM (inactive); in the test with RPMI-8226 it was 36.5 µM (inactive). The GI50 in the test with HOP-62, with A549, in the test on COLO 205, in the test on EKVX, with ACHN and with CAKI-1 was > 100 µM (inactive) throughout. Also, the GI50 in the test on IGROV-1 was 71.8 µM (inactive).

Turning to `COC(=O)c1cc(NC2OCC(OC(C)=O)C(OC(C)=O)C2OC(C)=O)nc(SC)c1C(=O)OC` (stereo unspecified), the GI50 in the test with NCI/ADR-RES is > 100 µM (inactive); with TK-10, > 100 µM (inactive); in the test with HCT-15, > 100 µM; in the test on M14, > 100 µM (inactive); in the test with NCI-H522, > 100 µM (inactive); with UO-31 it was > 100 µM (inactive). For the same compound, the GI50 in the test with KM12, with MDA-MB-231, in the test on DU-145, in the test with HCT-116, in the test on NCI-H460 and in the test on RPMI-8226 was > 100 µM (inactive) throughout. The GI50 in the test with HOP-62, with A549, in the test on COLO 205, in the test on SN12C, in the test on EKVX and in the test on ACHN was > 100 µM (inactive) throughout. The GI50 in the test on CAKI-1 and with IGROV-1 was > 100 µM (inactive) in each case.

As to `CN1c2ccccc2C(=O)NC12CCN(CCCC(=O)c1ccc(F)cc1)CC2`, the GI50 was > 100 µM (inactive) in the test with NCI/ADR-RES; > 100 µM in the test on HCT-15; 15.5 µM (inactive) in the test on M14; 26.7 µM (inactive) in the test with NCI-H522; 80.4 µM (inactive) in the test on UO-31; > 100 µM (inactive) in the test on KM12. Also, the GI50 with MDA-MB-231 is 40.9 µM (inactive); in the test with DU-145, > 100 µM (inactive); in the test on HCT-116, 44.7 µM (inactive); with RPMI-8226, 33.1 µM (inactive); with HOP-62, > 100 µM (inactive); with A549 it was > 100 µM (inactive). The GI50 with COLO 205 is 16.3 µM (inactive); with SN12C, > 100 µM (inactive); in the test on EKVX, > 100 µM (inactive); in the test on ACHN it was > 100 µM (inactive); in the test with CAKI-1, 82.4 µM (inactive); in the test with IGROV-1, > 100 µM (inactive).

Consider `C1CC2=C(C1)[Se]C(=C1Sc3nsnc3S1)[Se]2`, for which the GI50 was > 100 µM (inactive) with NCI/ADR-RES; > 100 µM (inactive) in the test with TK-10; 48.3 µM with HCT-15; > 100 µM (inactive) with M14; > 100 µM (inactive) in the test with NCI-H522; > 100 µM (inactive) with UO-31. The GI50 with KM12, in the test with MDA-MB-231, with DU-145, in the test on HCT-116, in the test on NCI-H460 and with RPMI-8226 was > 100 µM (inactive) throughout. The GI50 with HOP-62, in the test on A549, in the test with COLO 205, with SN12C, in the test with EKVX and in the test with ACHN was > 100 µM (inactive) each time. Besides, the GI50 with CAKI-1 and in the test with IGROV-1 was > 100 µM (inactive) each time.

As for `CC(C)NC(=O)CN1CCN(C2=C(Cl)C(=O)c3c(O)ccc(O)c3C2=O)CC1`, the GI50 is 2.38 µM (inactive) in the test with NCI/ADR-RES; 2.07 µM (inactive) in the test on TK-10; 0.693 µM in the test with HCT-15; 1.46 µM (inactive) with M14; 1.9 µM (inactive) in the test on NCI-H522; 1.03 µM (active) with UO-31. Besides, the GI50 with KM12 was 6.5 µM (inactive); in the test on MDA-MB-231, 1.97 µM (inactive); in the test on DU-145 it was 2.71 µM (inactive); in the test with HCT-116, 1.2 µM (inactive); in the test on NCI-H460, 7.5 µM (inactive); in the test on RPMI-8226 it was 1.99 µM (inactive). Also, the GI50 in the test with HOP-62 is 7.45 µM (inactive); with A549, 8.13 µM (inactive); with COLO 205, 1.31 µM (inactive); in the test with SN12C, 1.68 µM (inactive); in the test with EKVX it was 3.72 µM (inactive); in the test with ACHN, 2.15 µM (inactive). Further, the figures for the GI50 in the test on CAKI-1 and with IGROV-1 were 2.17 µM (inactive) and 2.39 µM (inactive), respectively.

Regarding `NNC(=O)CCc1ccc2ccc3ccccc3c2c1`, the GI50 in the test on NCI/ADR-RES is 89.1 µM (inactive); in the test with TK-10, > 100 µM (inactive); with HCT-15 it was 82 µM; with M14, 71.8 µM (inactive); in the test with NCI-H522, 28.8 µM (inactive); with UO-31, 18.8 µM (inactive). In addition, the GI50 is > 100 µM (inactive) with KM12; > 100 µM (inactive) in the test with MDA-MB-231; > 100 µM (inactive) in the test on DU-145; > 100 µM (inactive) in the test with HCT-116; > 100 µM (inactive) with NCI-H460; 72.1 µM (inactive) in the test on RPMI-8226. The GI50 with HOP-62 is > 100 µM (inactive); in the test on COLO 205, > 100 µM (inactive); in the test on SN12C, 68.1 µM (inactive); with EKVX it was 16.4 µM (inactive); in the test with ACHN, > 100 µM (inactive); with CAKI-1, 54.3 µM (inactive). Also, the GI50 in the test with IGROV-1 was > 100 µM (inactive).
